Measured values published in patent publication US7737141B2, “Prodrug of cinnamide compound” (Eisai R&D Management Co., Ltd., priority 2006, dated 2010).
Like-named read-outs stand apart in the source and are kept apart here.

Experiment: Solubility test: apparent solubility in test solutions, HPLC-UV
Type: physicochemical
Settings: for solubility: aqueous buffer, thermodynamic from solid
Experimental: Several milligram of each compound to be tested was precisely weighed, and 0.1 to 1.3 mL of the following test solutions were each added to the compound. The resulting mixture was stirred for several tens of seconds to several minutes for dispersing or dissolving the compound. Then, the supernatant was collected by centrifugation or filtration through a membrane. The concentration of the compound in the supernatant was quantitatively measured by an HPLC-UV method as an apparent solubility of the compound to each test solution.
pH 5: Diluted Mcllvaine buffer solution (KANTO Chemical Co. Inc.)
pH 7: GIBCO™ Dulbecco's phosphate-buffered saline (Invitrogen Corporation)

[1] = pH 7: Dulbecco's phosphate-buffered saline, read-out: Solubility at pH 7
[2] = diluted McIlvaine buffer solution, pH 5: Diluted Mcllvaine buffer solution, read-out: Solubility at pH 5

| solubility [1] [µg/mL] | solubility [2] [µg/mL] | Compound | Solubility at pH 5 (pH 5: Diluted Mcllvaine buffer solution) [mg/mL] | Solubility at pH 7 (pH 7: Dulbecco's phosphate-buffered saline) [mg/mL] |
| --- | --- | --- | --- | --- |
| 1690 | 960 | COc1cc(/C=C2\CC[C@H]3CC[C@@H](c4ccc(Cl)cc4)N3C2=O)ccc1-n1cc(C)[n+](COP(=O)(O)O)c1.O=C([O-])C(F)(F)F [Example 8, 3-{4-[(3S,8aS)-3-(4-chlorophenyl)-5-oxohexahydroindolizin-(6E)-ylidenemethyl]-2-methoxyphenyl}-5-methyl-1-(phosphonooxymethyl)-3H-imidazol-1-ium trifluoroacetate] | – | – |
| 8890 | 9140 | COc1cc(/C=C2\CC[C@H]3CC[C@@H](c4cc(F)c(F)c(F)c4)N3C2=O)ccc1-n1cc(C)[n+](COP(=O)(O)O)c1.O=C([O-])C(F)(F)F [Example 6, 3-{2-methoxy-4-[(3S,8aS)-5-oxo-3-(3,4,5-trifluorophenyl)hexahydroindolizin-(6E)-ylidenemethyl]phenyl}-5-methyl-1-phosphonooxymethyl-3H-imidazol-1-ium trifluoroacetate] | – | – |
| 8110 | 7680 | COc1cc(/C=C2\CC[C@H]3COC[C@@H](c4cc(F)c(F)c(F)c4)N3C2=O)ccc1-n1cc(C)[n+](COP(=O)(O)O)c1.O=C([O-])C(F)(F)F [Example 11, 3-{2-methoxy-4-[(4R,9aS)-6-oxo-4-(3,4,5-trifluorophenyl)hexahydropyrido[2,1-c][1,4]oxazin-(7E)-ylidenemethyl]phenyl}-5-methyl-1-phosphonooxymethyl-3H-imidazol-1-ium trifluoroacetate] | – | – |
| 1830 | 3440 | COc1cc(/C=C2\O[C@@H](C)CN([C@H](c3cc(F)c(F)c(F)c3)[C@@H](C)O)C2=O)ccc1-n1cc(C)[n+](COP(=O)(O)O)c1.O=C([O-])C(F)(F)F [Example 12, 3-{4-{(S)-4-[(1R,2R)-2-hydroxy-1-(3,4,5-trifluorophenyl)propyl]-6-methyl-3-oxomorpholin-(2Z)-ylidenemethyl}-2-methoxyphenyl}-5-methyl-1-(phosphonooxymethyl)-3H-imidazol-1-ium trifluoroacetate] | – | – |
| 9760 | 9590 | COc1cc(/C=C2\CC[C@@H]3CCC[C@@H](c4cc(F)c(F)c(F)c4)N3C2=O)ccc1-n1cc(C)[n+](COP(=O)(O)O)c1.O=C([O-])C(F)(F)F [Example 10, 3-{2-methoxy-4-[(6S,9aS)-4-oxo-6-(3,4,5-trifluorophenyl)hexahydroquinolizin-(3E)-ylidenemethyl]phenyl}-5-methyl-1-(phosphonooxymethyl)-3H-imidazol-1-ium trifluoroacetate] | – | – |
| > 10000 | > 10000 | COc1cc(/C=C2\O[C@@H](C)[C@H]3COC[C@@H](c4ccc(Cl)cc4)N3C2=O)ccc1-n1cc(C)[n+](COP(=O)(O)O)c1.O=C([O-])C(F)(F)F [Example 15, 3-{4-[(1S,6R,9aR)-6-(4-chlorophenyl)-1-methyl-4-oxotetrahydro[1,4]oxazino[3,4-c][1,4]oxazine-(3Z)-ylidenemethyl]-2-methoxyphenyl}-5-methyl-1-phosphonooxymethyl-3H-imidazole-1-ium trifluoroacetate] | – | – |
| > 10000 | > 10000 | COc1cc(/C=C2\OC(C)(C)[C@H]3COC[C@@H](c4cc(F)c(F)c(F)c4)N3C2=O)ccc1-n1cc(C)[n+](COP(=O)(O)O)c1.O=C([O-])C(F)(F)F [Example 18, 3-{4-[(6R,9aR)-1,1-dimethyl-4-oxo-6-(3,4,5-trifluorophenyl)tetrahydro[1,4]oxazino[3,4-c][1,4]oxazine-(3Z)-ylidenemethyl]-2-methoxyphenyl}-5-methyl-1-phosphonooxymethyl-3H-imidazole-1-ium trifluoroacetate] | – | – |
| 4720 | 3450 | Cc1cn(-c2ccc(/C=C3\O[C@@H](C)CN([C@H](c4ccc(F)c(F)c4)[C@@H](C)O)C3=O)cc2F)c[n+]1COP(=O)(O)O.O=C([O-])C(F)(F)F [Example 9, 3-{4-{(S)-4-[(1R,2R)-1-(3,4-difluorophenyl)-2-hydroxypropyl]-6-methyl-3-oxomorpholin-(2Z)-ylidenemethyl}-2-fluorophenyl}-5-methyl-1-phosphonooxymethyl-3H-imidazol-1-ium trifluoroacetate] | – | – |
| 1120 | 1150 | COc1cc(/C=C2\O[C@@H](C)[C@H]3CC[C@@H](c4cc(F)c(F)c(F)c4)N3C2=O)ccc1-n1cc(C)[n+](COP(=O)(O)O)c1.O=C([O-])C(F)(F)F [Example 16, 3-{2-methoxy-4-[(1S,6S,8aR)-1-methyl-4-oxo-6-(3,4,5-trifluorophenyl)tetrahydropyrrolo[2,1-c][1,4]oxazine-(3Z)-ylidenemethyl]phenyl}-5-methyl-1-phosphonooxymethyl-3H-imidazole-1-ium trifluoroacetate] | – | – |
| > 10000 | > 10000 | COc1cc(/C=C2\O[C@@H](C)[C@H]3COC[C@@H](c4cc(F)c(F)c(F)c4)N3C2=O)ccc1-n1cc(C)[n+](COP(=O)(O)O)c1.O=C([O-])C(F)(F)F [Example 14, 3-{2-methoxy-4-[(1S,6R,9aR)-1-methyl-4-oxo-6-(3,4,5-trifluorophenyl)tetrahydro-[1,4]oxazino[3,4-c][1,4]oxazine-(3Z)-ylidenemethyl]phenyl}-5-methyl-1-phosphonooxymethyl-3H-imidazole-1-ium trifluoroacetate] | – | – |
| 460 | 320 | Cc1cn(-c2ccc(/C=C3\O[C@@H](C)CN([C@H](c4cc(F)c(F)c(F)c4)[C@@H](C)O)C3=O)cc2F)c[n+]1COP(=O)(O)O.O=C([O-])C(F)(F)F [Example 5, 3-[2-fluoro-4-[(S)-4-[(1R,2R)-2-hydroxy-1-(3,4,5-trifluorophenyl)propyl]-6-methyl-3-oxomorpholin-(2Z)-ylidenemethyl]phenyl]-5-methyl-1-phosphonooxymethyl-3H-imidazol-1-ium trifluoroacetate] | – | – |
| > 10000 | > 10000 | COc1cc(/C=C2\CCCN([C@H](c3cc(F)c(F)c(F)c3)[C@@H](C)O)C2=O)ccc1-n1cc(C)[n+](COP(=O)(O)O)c1.O=C([O-])C(F)(F)F [Example 4, 3-{4-{1-[(1R,2R)-2-hydroxy-1-(3,4,5-trifluorophenyl)propyl]-2-oxopiperidin-(3E)-ylidenemethyl}-2-methoxyphenyl}-5-methyl-1-(phosphonooxymethyl)-3H-imidazol-1-ium trifluoroacetate] | – | – |
| 9150 | 9330 | COc1cc(/C=C2\CC[C@H]3CCC[C@@H](c4ccc(Cl)cc4)N3C2=O)ccc1-n1cc(C)[n+](COP(=O)(O)O)c1.O=C([O-])C(F)(F)F [Example 13, 3-{4-[(6S,9aR)-6-(4-chlorophenyl)-4-oxohexahydroquinolizin-(3E)-ylidenemethyl]-2-methoxyphenyl}-5-methyl-1-phosphonooxymethyl-3H-imidazol-1-ium trifluoroacetate] | – | – |
| – | – | 1-{4-{(E)-1-{[(S)-1-(4-fluorophenyl)ethyl]-2-oxopiperidin-3-ylidene}methyl}-2-methoxyphenyl}-4-methyl-1H-imidazol-3-iomethyl monohydrogenphosphate [Example 2] | >10 | >10 |
| 7550 | > 10000 | COc1cc(/C=C2\O[C@@H](C)[C@H]3COC[C@@H](c4ccc(F)c(F)c4)N3C2=O)ccc1-n1cc(C)[n+](COP(=O)(O)O)c1.O=C([O-])C(F)(F)F [Example 17, 3-{4-[(1S,6R,9aR)-6-(3,4-difluorophenyl)-1-methyl-4-oxotetrahydro[1,4]oxazino[3,4-c][1,4]oxazine-(3Z)-ylidenemethyl]-2-methoxyphenyl}-5-methyl-1-phosphonooxymethyl-3H-imidazole-1-ium trifluoroacetate] | – | – |

| Compound | solubility [1] [µg/mL] | solubility [2] [µg/mL] | Solubility at pH 5 (pH 5: Diluted Mcllvaine buffer solution) [mg/mL] | Solubility at pH 7 (pH 7: Dulbecco's phosphate-buffered saline) [mg/mL] |
| --- | --- | --- | --- | --- |
| COc1cc(/C=C2\CCCN([C@@H](C)c3ccc(F)cc3)C2=O)ccc1-n1cc(C)[n+](COC(C)=O)c1.[I-] [Example 3, 1-acetoxymethyl-3-[4-{1-[(S)-1-(4-fluorophenyl)ethyl]-2-oxopiperidin-(3E)-ylidenemethyl]-2-methoxyphenyl}-5-methyl-3H-imidazol-1-ium iodide] | 1120 | 1240 | – | – |
